Target: T1, integrin α4β7, expressed on the RPMI 8866 (human B lymphoid cell line) cell membrane with MAdCAM-1 (Homo sapiens, UniProt P13612+P26010)
T1 construct: integrin α4β7, expressed on the RPMI 8866 (human B lymphoid cell line) cell membrane; endogenous in cells; host or cells: RPMI 8866 cells (integrin). zzMAdCAM-1 was made in house in baculovirus-infected Spodoptera frugiperda cells
T1 sequence (P13612 34-1032): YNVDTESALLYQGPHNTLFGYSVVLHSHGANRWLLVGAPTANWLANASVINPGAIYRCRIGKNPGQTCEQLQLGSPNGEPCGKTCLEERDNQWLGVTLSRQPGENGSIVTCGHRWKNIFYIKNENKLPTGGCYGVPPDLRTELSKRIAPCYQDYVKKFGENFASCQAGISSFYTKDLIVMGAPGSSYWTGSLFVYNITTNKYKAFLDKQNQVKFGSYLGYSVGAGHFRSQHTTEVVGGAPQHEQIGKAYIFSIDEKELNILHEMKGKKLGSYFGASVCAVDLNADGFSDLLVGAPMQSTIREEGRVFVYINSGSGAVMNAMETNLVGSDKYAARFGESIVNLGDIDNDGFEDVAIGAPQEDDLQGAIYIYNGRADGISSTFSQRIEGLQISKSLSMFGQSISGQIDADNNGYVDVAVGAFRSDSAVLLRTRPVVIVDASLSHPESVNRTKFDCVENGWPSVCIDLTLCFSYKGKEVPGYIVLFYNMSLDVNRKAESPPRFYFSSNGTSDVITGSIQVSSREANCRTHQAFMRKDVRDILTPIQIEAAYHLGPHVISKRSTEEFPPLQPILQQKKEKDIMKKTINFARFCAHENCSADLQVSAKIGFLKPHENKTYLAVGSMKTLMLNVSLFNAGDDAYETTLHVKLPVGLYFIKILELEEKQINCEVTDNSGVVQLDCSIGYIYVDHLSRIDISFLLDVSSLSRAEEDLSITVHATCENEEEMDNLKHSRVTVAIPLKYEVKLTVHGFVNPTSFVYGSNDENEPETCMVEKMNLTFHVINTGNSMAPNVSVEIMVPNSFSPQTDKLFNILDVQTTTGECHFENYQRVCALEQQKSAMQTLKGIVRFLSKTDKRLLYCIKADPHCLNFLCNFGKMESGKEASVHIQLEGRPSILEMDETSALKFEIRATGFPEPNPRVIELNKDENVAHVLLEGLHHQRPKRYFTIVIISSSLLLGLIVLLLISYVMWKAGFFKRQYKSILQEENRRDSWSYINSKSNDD
T1 sequence (P26010 20-798): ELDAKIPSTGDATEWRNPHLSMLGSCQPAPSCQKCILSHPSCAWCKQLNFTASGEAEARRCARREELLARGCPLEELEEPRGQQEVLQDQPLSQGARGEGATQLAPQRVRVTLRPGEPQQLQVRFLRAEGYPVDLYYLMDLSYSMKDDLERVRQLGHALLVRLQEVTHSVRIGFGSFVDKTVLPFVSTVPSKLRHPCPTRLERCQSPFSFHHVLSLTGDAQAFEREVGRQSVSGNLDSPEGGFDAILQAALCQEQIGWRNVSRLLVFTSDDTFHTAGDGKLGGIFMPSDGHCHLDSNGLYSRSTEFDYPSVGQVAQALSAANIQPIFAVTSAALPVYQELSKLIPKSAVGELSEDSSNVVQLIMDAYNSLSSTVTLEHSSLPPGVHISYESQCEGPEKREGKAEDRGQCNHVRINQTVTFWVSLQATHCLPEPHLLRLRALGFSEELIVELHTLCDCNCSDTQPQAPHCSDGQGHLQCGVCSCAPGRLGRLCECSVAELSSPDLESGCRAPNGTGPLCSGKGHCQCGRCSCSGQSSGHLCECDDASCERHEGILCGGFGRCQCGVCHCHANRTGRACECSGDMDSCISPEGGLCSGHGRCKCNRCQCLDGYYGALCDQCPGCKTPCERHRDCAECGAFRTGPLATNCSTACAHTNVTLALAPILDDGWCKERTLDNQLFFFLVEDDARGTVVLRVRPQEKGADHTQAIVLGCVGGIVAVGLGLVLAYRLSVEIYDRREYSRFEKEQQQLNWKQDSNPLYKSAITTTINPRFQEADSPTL
Assay: RPMI 8866/MAdCAM-1 adhesion assay
Type: cell-based
Conditions: RPMI 8866 cell adhesion to MAdCAM-1, 1 mM MnCl2; mean of n experiments
Procedure: (4) RPMI 8866/MAdCAM-1 Adhesion Assay
This assay was used to investigate the interaction of the integrin α4β7, expressed on the RPMI 8866 (human B lymphoid cell line) cell membrane with MAdCAM-1. Polystyrene 96-well microtitre plates were coated with human immunoglobulin G (IgG; Sigma Chemicals, UK, Product No. 14506) at a concentration of 0.05 mg ml^−1 in bicarbonate buffer (36 mM NaHCO3 and 22 mM Na2CO3, prepared in Dulbecco's phosphate buffered saline at pH 9.8 (PBS); Sigma Chemicals, UK, Product No. 14190-094) for 2 hours at 37° C. This solution was then aspirated and the plates were washed twice with PBS.
MAdCAM-1 was prepared by cloning its constituent domains, under the control of a polyhedrin promoter, into a baculovirus expression system with a zz (Protein A) tag. The amplified baculovirus containing zzMAdCAM-1 was used to infect Spodoptera frugiperda cells growing in suspension in SF900II medium supplemented with 5% foetal calf serum. The cells were infected at a multiplicity of infection of 1 and harvested 48 hours later by centrifugation. Protease inhibitors were added and the culture supernatant was clarified either by filtration through a 0.2 μm filter or by centrifugation. The zzMAdCAM-1 was then purified from this clarified medium using an IgG agarose column, equilibrated with either 20 mM sodium phosphate pH 7.2 alone or in the presence of 0.5M sodium chloride. Elution of zzMAdCAM-1 from the column was mediated using 3M ammonium thiocyanate. The sample was then dialysed thoroughly, using 20 mM sodium phosphate pH 7.2, to remove the ammonium thiocyanate. The purified zzMAdCAM-1 was then concentrated to a small volume (Amicon stirred cell concentrators) until a concentration of 0.5 mg ml^−1 was obtained, calculated using the extinction coefficient value.
This solution of zzMAdCAM-1 was diluted 1:2500 and then incubated overnight at 4° C. in the IgG coated microtitre plates with 3% bovine serum albumin (BSA) in PBS, followed by aspiration and two further washes with PBS. A concentration of the RPMI 8866 cells (3×10^6 cells ml^−1), grown in cell media RPMI 1640 (HyClone Ltd, Product No. B-9106-L) supplemented with 10% heat inactivated foetal calf serum (FCS; Gibco BRL, Product No. 10099-075) and 2 mM L-glutamine, were labelled with 10 μM of the fluorescent dye, 2′, 7′-bis(2-carboxyethyl)-5-(e6)-carboxyfluorescein acetoxymethyl ester (BCECF-AM; Molecular Probes Inc. Product No. B-1150) at 37° C. for 10 minutes. The excess dye was then removed by centrifugation at 500×g for 5 minutes and the cells were resuspended at a concentration of 6×10^6 cells ml^−1 in Hank's balanced salt solution (HBSS; Gibco BRL, Product No. 1419D-094).
Equal volumes of compounds (dissolved in an appropriate solvent and diluted in HBSS containing 1 mM MnCl2) and the labelled RPMI 8866 cells, were added to the MAdCAM-1 coated plates and adhesion was allowed to proceed for 30 minutes at 37° C. Non, or loosely adhered cells, were removed by inversion of the plate and blotted with tissue paper. Two washes with PBS and further blotting were then performed, before the addition of 2% detergent (Triton-X®; Sigma Chemicals UK, Product No. X100). Counting was undertaken in a Wallac Victor™ Fluorimeter, where low fluorescence values were indicative of compounds which had inhibited adhesion. All samples were assayed in singlicate and the following four parameter curve fit, shown by Equation (I) (above) was applied. Wherein the maximum and minimum values are those compared to adhesion in the absence of compound and in the presence of the dipotassium salt of 2 mM EDTA; Sigma Chemicals, UK, Product No. ED2P). Data is presented as the mean pIC50 with the standard error of the mean of n experiments.

Row | SMILES | IC50
1 | CC(=O)N1CCN(C(=O)Oc2ccc(C[C@H](NC(=O)[C@H](CC(C)C)NC(=O)COc3ccccc3C(C)(C)C)C(=O)O)cc2)CC1 [Example 16, (2S)-3-(4-{[(4-Acetyl-1-piperazinyl)carbonyl]oxy}phenyl)-2-{[(2S)-2-({2-[2-(tert-butyl)phenoxy]acetyl}amino)-4-methylpentanoyl]amino}propanoic acid] | 158 nM
2 | CC(=O)N1CCN(C(=O)Oc2ccc(C[C@H](NC(=O)[C@H](CC(C)C)NC(=O)COc3ccccc3C)C(=O)O)cc2)CC1 [Example 17, (2S)-3-(4-{[(4-Acetyl-1-piperazinyl)carbonyl]oxy}phenyl)-2-[((2S)-4-methyl-2-{[2-(2-methylphenoxy)acetyl]amino}pentanoyl)amino]propanoic acid] | 158 nM
3 | CC(C)C[C@H](NC(=O)COc1ccccc1C(C)(C)C)C(=O)N[C@@H](Cc1ccc(OC(=O)N2CCN(C(=O)c3ccccc3)CC2)cc1)C(=O)O [Example 20, (2S)-3-(4-{[(4-Benzoyl-1-piperazinyl)carbonyl]oxy}phenyl)-2-{[(2S)-2-({2-[2-(tert-butyl)phenoxy]acetyl}amino)-4-methylpentanoyl]amino}propanoic acid] | 200 nM
4 | Cc1ccccc1OCC(=O)N[C@@H](CC(C)C)C(=O)N[C@@H](Cc1ccc(OC(=O)N2CCN(C(=O)c3ccccc3)CC2)cc1)C(=O)O [Example 21, (2S)-3-(4-{[(4-Benzoyl-1-piperazinyl)carbonyl]oxy}phenyl)-2-[((2S)-4-methyl-2-{[2-(2-methylphenoxy)acetyl]amino}pentanoyl)amino]propanoic acid] | 200 nM
5 | CC(C)C[C@H](NC(=O)COc1ccccc1I)C(=O)N[C@@H](Cc1ccc(OC(=O)N2CCOCC2)cc1)C(=O)O [Example 23, (2S)-2-[((2S)-2-{[2-(2-Iodophenoxy)acetyl]amino}-4-methylpentanoyl)amino]-3-{4-[(4-morpholinylcarbonyl)oxy]phenyl}propanoic acid] | 63.1 nM
6 | CC(C)C[C@H](NC(=O)COc1ccccc1C(C)(C)C)C(=O)N[C@@H](Cc1ccc(OC(=O)N2CCOCC2)cc1)C(=O)O [Example 24, (2S)-2-{[(2S)-2-({2-[2-(Tert-butyl)phenoxy]acetyl}amino)-4-methylpentanoyl]amino}-3-{4-[(4-morpholinylcarbonyl)oxy]phenyl}propanoic acid] | 251 nM
7 | Cc1ccccc1OCC(=O)N[C@@H](CC(C)C)C(=O)N[C@@H](Cc1ccc(OC(=O)N2CCC(C(N)=O)CC2)cc1)C(=O)O [Example 27, (2S)-3-[4-({[4-(Aminocarbonyl)-1-piperidinyl]carbonyl}oxy)phenyl]-2-[((2S)-4-methyl-2-{[2-(2-methylphenoxy)acetyl]amino}pentanoyl)amino]propanoic acid] | 31.6 nM
8 | CC(C)C[C@H](NC(=O)c1cccc2c1oc1ccccc12)C(=O)N[C@@H](Cc1ccc(OC(=O)N2CCC(C(N)=O)CC2)cc1)C(=O)O [Example 28, (2S)-3-[4-({[4-(Aminocarbonyl)-1-piperidinyl]carbonyl}oxy)phenyl]-2-({(2S)-2-[(dibenzo[b,d]furan-4-ylcarbonyl)amino]-4-methylpentanoyl}amino)propanoic acid] | 126 nM

Source: patent publication US6867192B1, “Compounds useful in the treatment of inflammatory diseases” (priority 1998, dated 2005)
